# Experimental data from US4091006A, “Esters of 3-hydroxyindone compounds” (priority 1975, dated 1978).
# Experiments:
# Tomato = assay: Phytotoxicity, tomato; conditions: 2500 ppm, 10 days
# Method: (§5) Experiments were also conducted to determine the phytotoxicity of representative enol ester compositions with respect to healthy fresh plants. […] The test plants were sprayed in accordance with the procedure described above for the Mite Foliage Spray Test so as to deliver approximately 100 milliliters of test solution to the leaves of each plant tested. The sprayed plants and controls were set aside for approximately 1 hour to allow the solutions to dry and were then placed in the greenhouse. After 10 days the plants were visually inspected to determine the extent of foliage injury. A rating of 1 indicates no perceptible injury; 5 indicates the plant was dead and ratings of 2, 3 and 4 indicate intermediate degrees of injury based upon the number and extent to which leaves were injured.
# [1] = system: egg of the two-spotted mite; assay: Mite Ovicide Test; assay type: in vivo, Tetranychus urticae (Koch); conditions: spray on eggs, 4 days
# Source text: (§1) The test procedures were as follows:
# The plants were allowed to dry thoroughly.
# (§2) Compositions were rated on the basis of percent kill with a rating of 1 indicating no mortality; 3 signifying an approximately 50% mortality and 5 indicating 100% mortality at the indicated dosage.
# [2] = system: Perennial rye grass, crabgrass, red root pigweed, mustard; assay: Preliminary Herbicide Seed Germination Test; conditions: rating/maximum 40: 100 and 1000 ppm, four species, each rated 1 (no injury) to 5 (no seedlings emerged), 10-12 days
# Source text: The thus-prepared stock suspension contained 0.5 percent by weight of compound. The test concentrations employed in the tests described hereinbelow were obtained by diluting the stock suspension with water. The test procedures were as follows:
# The following seeds were used in this test:
# Crabgrass -- Digitaria san-
# Mustard -- Brassica pincea var.
# Each of above mixtures is rolled separately in 5 gallon containers for approximately one-half hour on ball mill to insure uniform mixing of seeds and soil. For each compound four 3-inch pots are filled with soil to within 11/2 inches of top of pots. To 2 of these pots are added 70 cc. of Mixture I. To the remaining 2 pots are added 70 cc. of Mixture II. The seed-soil mixture is tamped firmly, and the pots are removed to the greenhouse and watered lightly. About 2 hours after planting, 25 milliliters of the test formulation were added to each of 2 pots for each soil-seed mixture; i.e., one replicate of each seed mixture per concentration. An equal volume of a water solution containing acetone and an emulsifier in the same concentration as the herbicidal mixture but without the candidate herbicide is also added to each of the soil-seed mixtures. These pots are used as check or control units. The test compounds are formulated by standard procedure of solution in acetone, addition of an emulsifier, and dilution with water. Tests were conducted on all compositions at low concentration (100 ppm.). Certain compositions were also tested at high concentration (1000 ppm). The pots were held in the greenhouse and watered lightly until results were taken. Ten to twelve days after application of chemical, injury is noted for each species by comparing treated vs. untreated pots. Ratings are made at both the high and the low concentrations (1000 ppm and 100 ppm) according to the following designations:
# 4 = few seedlings emerged and/or very severe stunting
# 3 = moderate reduction in stand and/or moderate stunting
# 2 = very slight reduction in stand and/or slight stunting
# 1 = no injury; seedlings appear no different with respect to stand or growth than untreated controls
# Accordingly, the maximum rating for one test seed species tested at both high and low concentration is 10 and the maximum possible total preemergence rating is 40 (10 for each of the four test seed species). […] In some tests the crabgrass experiment was omitted. In these tests the maximum total rating for species tested at both high and low concentrations is 30 and 15 for species tested only at low concentrations.
# [3] = system: egg forms of the two-spotted mite; assay: Fumigant toxicity, Method 2 (treated plants near untreated infested plants); assay type: in vivo; conditions: 500 ppm dip, 4 days
# Method: (§3) Two methods were used to evaluate fumigant properties:
# Method 2: Excised bean plants infested with egg forms of the two-spotted mite were dipped in an aqueous preparation (500 ppm) of the test compound. The treated plants were transferred to 250 ml. Erlenmeyer flasks containing 100 ml. of tap water. Four flasks holding treated plants were evenly spaced around a similar flask in which were placed untreated mite-infested plants so that the leaves of the treated foliage were in close proximity (1-3 inches) to the untreated plants. Four days later mortality determinations were made.
# Mite Ova = assay: whole plant or invertebrate
# Method: The test organism was the egg of the two-spotted mite (Tetranychus urticae (Koch)), as obtained from adults reared on Tendergreen bean plants under controlled conditions of 80±5° F. and 50±5 percent relative humidity. Heavily infested leaves from a stock culture were placed on the primary leaves of two bean plants 6 to 8 inches in height, growing in a 21/2 inch clay pot. Females were allowed to oviposit for a period of 48 hours and then the leaves of the infested plants were dipped in a solution containing 800 parts of tetraethyl pyrophosphate per million parts of water in order to destroy the reproductory forms and thus prevent further egg laying. […] The plants were allowed to dry thoroughly. […] The potted plants (one pot per compound) were placed on a revolving turntable and sprayed with 100-110 milliliters of test compound formulation by use of a DeVilbis spray gun set at 40 psig. air pressure. This application, which lasted 30 seconds, was sufficient to wet the plants to run-off. As a control, 100-110 milliliters of a water solution containing acetone and emulsifier in the same concentrations as the test compound formulation, but containing no test compound, were also sprayed on plants infested with eggs. The sprayed plants were held at 80±5° F. and 50±5 percent relative humidity for 4 days, after which a microscopic examination was made of unhatched (dead) and hatched (living) eggs.
# (§4) Side by side comparison tests were conducted to determine the effectiveness of selected enol ester compounds relative to (bis(p-chlorophenyl)trichlorethanol) a miticide sold under the trademark Kelthane and ovex (p-chlorophenyl-p-chlorobenzene sulfonate) two widely used commercial miticides.
# Cotton = assay: Phytotoxicity, cotton; conditions: 2500 ppm, 10 days
# Method: as §5
# Mite Adults = assay: whole plant or invertebrate
# Method: Adults and nymphal stages of the two-spotted mite (tetranychus urticae (Koch)), reared on Tendergreen bean plants at 80±5° F. and 50±5 percent relative humidity, were the test organisms. Infested leaves from a stock culture were placed on the primary leaves of two bean plants 6 to 8 inches in height, growing in a 21/2 inch clay pot. 150-200 Mites, a sufficient number for testing, transferred from the excised leaves to the fresh plants in a period of 24 hours. Following the 24 hour transfer period, the excised leaves were removed from the infested plants. The test compounds were formulated by diluting the stock suspension with water to provide suspensions containing the desired amount of test compound per million parts of final formulation. The potted plants (one pot per compound) were placed on a revolving turntable and sprayed with 100-110 milliliters of test compound formulation by use of a DeVilbis spray gun set at 40 psi. air pressure. This application, which lasted 30 seconds, was sufficient to wet the plants to run-off. As a control, 100-110 milliliters of a water solution containing acetone and emulsifier in the same concentrations as the test compound formulation, but containing no test compound, were also sprayed on infested plants. The sprayed plants were held at 80±5° F. and 50±5 percent relative humidity for 4 days, after which, a mortality count of motile forms was made. Microscopic examination for motile forms was made on the leaves of the test plants. Any individual which was capable of locomotion upon prodding was considered living.
# as §4
# Corn = assay: Phytotoxicity, corn; conditions: 2500 ppm, 10 days
# Method: as §5
# [4] = system: eggs of the two-spotted mite; assay: Fumigant toxicity, Method 1 (deposit in pie plate); assay type: in vivo; conditions: deposit approx. 160 μg per square cm, 4 days
# Method: as §3
# Method 1: Fifty mg. of each compound were dissolved in 5 ml. of acetone and poured into a 20 cm. (bottom diameter) Pyrex No. 210 pie plate. The acetone was allowed to evaporate leaving a deposit of approximately 160 μg. per square cm. The plate was then placed in the bottom of a 50 pound metal lard container (about 30 cm. in diameter and 34 cm. high). Two excised bean plants, held in a 250 ml. Erlenmeyer flask containing 100 ml. of tap water and infested with eggs of the two-spotted mite, were placed in the center of the pie plate. The container was held in the insectary (temperature 80±5° F., 50±5% R. H.) for four days before mortality determinations were made.
# two-spotted mite = assay: Small scale field tests, mite control on Tendergreen bean plants; assay type: in vivo, Tetranychus urticae (Koch); conditions: for Average mite control rating, 3rd Reading: 21 days
# Method: Selected enol ester compositions were evaluated in small scale field tests to determine whether the excellent miticidal properties observed in greenhouse testing would be obtained under actual conditions of field use.
# In Test I 500 ppm aqueous dispersions were prepared as described above. In tests II and III various dilutions of the test compounds ranging from 125 ppm to 1000 ppm were prepared and used. In each case the test dispersions were applied to a minimum of two replicate test plots measuring five feet in length and containing healthy young Tendergreen bean plants which had previously been infested with two-spotted mite (Tetranychus urticae (Koch)). Dispersions of the test compounds at each concentration level were applied to individual replicate plots using 1/2 gallon garden sprayers equipped with spray nozzles to apply approximately 250 ml. of test solution to each replicate. The effectiveness of the treatment was determined at intervals following application, by microscopic examination of five leaves selected at random from each replicate plot. The degree of effectiveness for each leaf was rated on a scale of from 1 to 5 with 1 indicating no control in reference to a standard sprayed with a mixture of solution less test compound and 5 indicating complete control. The results obtained from inspection of sample leaves were then averaged to give a numerical indication of the degree of control for each compound tested at the concentration applied.
# [5] = system: adults and nymphal stages of the two-spotted mite; assay: Mite Foliage Spray Test; assay type: in vivo, Tetranychus urticae (Koch); conditions: 4 days
# Source text: as §1, §2
# Bean = assay: Phytotoxicity, bean; conditions: 2500 ppm, 10 days
# Method: as §5
# [6] = concentration to kill 95 percent
compound,measurement,setting,value
"Cc1cc(C)c(C2=C(OC(=O)C(C)(C)C)c3ccccc3C2=O)c(C)c1 [2-(2',4',6'-Trimethylphenyl)-3-(pivaloyloxy)indone]","Phytotoxicity Rating, Tomato",Tomato,3
same,Mite Ova rating,[1],5 (100% mortality)
same,Herbicide (total preemergence rating),[2],32/40
same,Fumigant Toxicity Method 2,[3],5 (80-100% control)
same,LC50,"Mite Ova; Tetranychus urticae, read-out: Mite Ova LD50",3 µg/mL
same,Mite Ova LD95,Mite Ova; [6],9 ppm
same,"Phytotoxicity Rating, Cotton",Cotton,3
same,LC50,"Mite Adults; Tetranychus urticae, read-out: Mite Adults LD50",5 µg/mL
same,Mite Adults LD95,Mite Adults; [6],170 ppm
same,"Phytotoxicity Rating, Corn",Corn,3
same,Fumigant Toxicity Method 1,[4],5 (80-100% control)
same,"Average mite control rating, 1st Reading","two-spotted mite; Test I, 500 ppm, 4 days, scale 1 (no control) to 5 (complete control)",4.0
same,"Average mite control rating, 2nd Reading","two-spotted mite; Test I, 500 ppm, 8 days, scale 1 to 5",3.5
same,"Average mite control rating, 1st Reading","two-spotted mite; Test II, 250 ppm, 3 days, scale 1 to 5",3.0
same,"Average mite control rating, 2nd Reading","two-spotted mite; Test II, 250 ppm, 7 days, scale 1 to 5",4.0
same,"Average mite control rating, 1st Reading","two-spotted mite; Test II, 500 ppm, 3 days, scale 1 to 5",2.3
same,"Average mite control rating, 2nd Reading","two-spotted mite; Test II, 500 ppm, 7 days, scale 1 to 5",4.7
same,"Average mite control rating, 1st Reading","two-spotted mite; Test III, 125 ppm, 3 days, scale 1 to 5",1.7
same,"Average mite control rating, 2nd Reading","two-spotted mite; Test III, 125 ppm, 7 days, scale 1 to 5",2.3
same,"Average mite control rating, 3rd Reading","two-spotted mite; Test III, 125 ppm, scale 1 to 5",1.7
same,"Average mite control rating, 1st Reading","two-spotted mite; Test III, 250 ppm, 3 days, scale 1 to 5",3.0
same,"Average mite control rating, 2nd Reading","two-spotted mite; Test III, 250 ppm, 7 days, scale 1 to 5",4.0
same,"Average mite control rating, 3rd Reading","two-spotted mite; Test III, 250 ppm, scale 1 to 5",3.7
same,"Average mite control rating, 1st Reading","two-spotted mite; Test III, 500 ppm, 3 days, scale 1 to 5",3.0
same,"Average mite control rating, 2nd Reading","two-spotted mite; Test III, 500 ppm, 7 days, scale 1 to 5",4.0
same,"Average mite control rating, 3rd Reading","two-spotted mite; Test III, 500 ppm, scale 1 to 5",4.5
same,Mite Adult rating,[5],5 (100% mortality)
same,"Phytotoxicity Rating, Bean",Bean,1
